For this test, the target named is T1, Protein Mdm4 (Homo sapiens, UniProt O15151).
T1 sequence (O15151 whole entry): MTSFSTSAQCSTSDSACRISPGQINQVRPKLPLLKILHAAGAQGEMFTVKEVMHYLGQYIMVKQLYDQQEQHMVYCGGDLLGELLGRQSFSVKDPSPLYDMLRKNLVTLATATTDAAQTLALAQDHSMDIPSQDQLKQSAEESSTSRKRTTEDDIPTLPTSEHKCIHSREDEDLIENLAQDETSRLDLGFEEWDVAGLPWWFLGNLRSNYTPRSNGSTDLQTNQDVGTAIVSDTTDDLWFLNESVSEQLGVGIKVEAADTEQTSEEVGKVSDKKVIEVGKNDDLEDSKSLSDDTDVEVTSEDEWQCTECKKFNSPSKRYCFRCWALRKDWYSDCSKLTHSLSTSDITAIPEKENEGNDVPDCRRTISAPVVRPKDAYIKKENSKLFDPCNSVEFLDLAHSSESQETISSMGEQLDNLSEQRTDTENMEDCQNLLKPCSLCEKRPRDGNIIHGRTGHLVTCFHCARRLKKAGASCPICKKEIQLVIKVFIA
Description: Mdm2-MdmX interaction inhibitors, dose response, luminescence detection (AID 504593).

The structures appear in SMILES notation.

For the molecule `Cc1cc(N=NC(C)c2ccccc2O)nc(-c2ccccc2O)n1` (stereo unspecified), the IC50 worked out at 6.71 µM.

As a reminder, the IC50 is the point on the concentration scale where inhibition reaches its midpoint. Low readings indicate greater potency in that assay, high ones weaker potency in that assay.

Values taken from BindingDB's records for doi:10.7270/Q2PG1Q6D (Burnham Center For Chemical Genomics, 2011).
